Test results reported in patent publication US20030144360A1, “Composition and method for modulating BAR/FXR receptor activity” (Allergan Sales, Inc., priority 2001, published 2003).

How the values were obtained:
[1] = system: HepG2 cells; assay: Northern blot analysis of BAR/FXR target genes in HepG2 cells; format: cell-based, human; conditions: for BAR/FXR expression / CYP7A expression / GAPDH expression / transcription of SHP: 24 hours
Procedure: One day prior to treatment, confluent HepG2 and differentiated Caco-2 cells were switched to phenol red-free media containing resin-charcoal stripped FBS and then treated for and additional 24 hours with the indicated compounds. Total RNA was isolated using the Trizol reagent. Northern blots were prepared from polyA^+ RNA using the Oligotex method (Qiagen) and analyzed with the following probes: human CYP7A (accession #M93133) nucleotides 1617-2576 (Karam and Chiang, 185 Biochem. Biophys. Res. Commun. 588 (1992)), human SHP (accession #L76571) nucleotides 888-1355, human IBABP (accession # A1311734), an EST containing the entire coding sequence of IBABP.
We next tested the ability of AGN 29 and AGN 31 to regulate BAR/FXR target genes. We used the hepatoma cell line HepG2 as a hepatocyte model as this cell line has been used extensively to study cholesterol metabolism and bile acid-mediated gene regulation. We monitored the expression of two well known BAR/FXR target genes: CYP7A, the rate-limiting enzyme for bile acid synthesis, is down regulated by bile acids in HepG2 cells.
To verify that AGN34 represses BAR/FXR […], we looked at its effect on BAR/FXR target genes in cultured cells by Northern blot analysis.

[2] = molecular target: T1, BAR/FXR (BAR-RXR heterodimer) (UniProt P19793+Q62735); assay: Transient cotransfection luciferase reporter assay, full-length BAR/FXR and RXR in CV-1 cells; set-up: repression of the BAR/RXR heterodimer: dose or concentration left out as unconfirmed; conditions: for activation of BAR/FXR (luciferase expression): 5 μM, 40 hours
T1 sequence (Q62735 1-469): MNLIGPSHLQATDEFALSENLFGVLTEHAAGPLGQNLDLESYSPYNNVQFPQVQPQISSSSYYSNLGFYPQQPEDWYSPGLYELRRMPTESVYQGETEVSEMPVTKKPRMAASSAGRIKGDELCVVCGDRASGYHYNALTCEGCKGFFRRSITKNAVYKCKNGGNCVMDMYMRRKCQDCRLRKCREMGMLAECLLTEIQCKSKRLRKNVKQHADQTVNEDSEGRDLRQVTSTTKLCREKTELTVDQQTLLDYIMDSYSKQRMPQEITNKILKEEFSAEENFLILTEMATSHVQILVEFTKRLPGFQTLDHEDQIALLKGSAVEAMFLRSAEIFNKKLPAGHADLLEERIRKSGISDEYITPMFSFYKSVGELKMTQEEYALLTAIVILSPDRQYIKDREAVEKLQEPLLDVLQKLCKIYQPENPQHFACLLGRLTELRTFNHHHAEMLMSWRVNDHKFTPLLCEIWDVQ
T1 sequence (P19793 1-462): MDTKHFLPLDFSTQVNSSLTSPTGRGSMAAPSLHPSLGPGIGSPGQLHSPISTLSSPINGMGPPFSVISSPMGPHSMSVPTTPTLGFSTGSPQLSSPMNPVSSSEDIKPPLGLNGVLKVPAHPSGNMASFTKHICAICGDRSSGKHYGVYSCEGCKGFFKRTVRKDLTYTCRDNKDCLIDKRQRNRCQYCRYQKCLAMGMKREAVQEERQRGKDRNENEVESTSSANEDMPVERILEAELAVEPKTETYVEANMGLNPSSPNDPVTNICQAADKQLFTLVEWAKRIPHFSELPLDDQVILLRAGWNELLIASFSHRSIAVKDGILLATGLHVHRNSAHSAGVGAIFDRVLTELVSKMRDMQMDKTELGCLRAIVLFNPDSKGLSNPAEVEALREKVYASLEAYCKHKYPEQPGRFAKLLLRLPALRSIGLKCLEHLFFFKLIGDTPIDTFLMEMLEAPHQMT

[3] = molecular target: T2, Gal-L-RAR (Homo sapiens, UniProt P10276); assay: Gal-L-RAR fusion with Gal 4 reporter (MH100×4) in CV-1 cells; format: cell-based; conditions: 5 μM
T2 construct: expressed in transfected cells; host or cells: CV-1
T2 sequence (P10276 156-462 limits assumed): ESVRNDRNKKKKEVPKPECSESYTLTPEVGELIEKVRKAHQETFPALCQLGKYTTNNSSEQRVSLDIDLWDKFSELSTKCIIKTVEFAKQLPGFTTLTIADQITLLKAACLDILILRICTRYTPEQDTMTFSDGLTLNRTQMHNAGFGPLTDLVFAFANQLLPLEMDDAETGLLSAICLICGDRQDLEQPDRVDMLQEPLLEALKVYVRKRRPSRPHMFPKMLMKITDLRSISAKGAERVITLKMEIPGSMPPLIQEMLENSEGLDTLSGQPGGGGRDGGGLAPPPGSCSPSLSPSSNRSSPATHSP
Procedure: The nucleic acid regions encoding the following full-length proteins were cloned into a CMV expression vector. […] The βgal contains the E. coli P-galactosidase coding sequences derived from pCH110 (accession #U02445). RXRm contains a single point mutation (Asp-322-Pro) in the LBD of human RXRα.
CV-1 African Green Monkey cells were grown in Dulbecco's Modified Eagle's medium supplemented with 10% resin-charcoal stripped fetal bovine serum (FBS), 50 U/ml penicillin G and 50 μg/ml streptomycin sulfate (DMEM-FBS) at 37° C. in 5% CO2. One day prior to transfection, cells were plated to 50-80% confluence using phenol red-free DMEM-FBS. […]
The harvested cells were assayed for the presence of luciferase activity. […] Luciferase activity was measured by reaction of the cell lysates with luciferin in a reaction buffer comprising: 20 mM tricine, 1.07 mM Mg(CO3)4-Mg(OH)2-5H2O, 2.67 mM MgSO4.7H2O, 0.1 mM EDTA, 0.5 mM Sodium luciferin, 0.15 mg/ml Coenzyme A, 5 mM DTT, and 0.5 mM adenosine triphosphate (ATP). Resulting chemiluminescence was measured in a luminometer. […]
The transfected cells were then treated with the indicated ligands for 40 hours. Activity was measured using luciferase expression in the cotransfection assay described above. […] Thus, Gal-L-RAR or Gal-L-RXR fusions were transfected into CV-1 cells with a Gal 4 reporter (MH100×4) and the effect of different ligands was evaluated.

[4] = molecular target: T3, BAR:RXR heterodimers (UniProt P19793+Q62735); assay: Co-activator (GRIP1) gel shift displacement assay, BAR:RXR heterodimer; format: binding
T3 construct: nucleic acid regions encoding the following full-length proteins were cloned into a CMV expression vector; made in house; host or cells: receptors: in vitro translation; GST-GRIP1: E. coli
T3 sequence (Q62735 1-469): T1 sequence (Q62735 1-469)
T3 sequence (P19793 1-462): T1 sequence (P19793 1-462)
From the text: Coactivators, which bind agonist-activated nuclear receptors including, without limitation, RAR and RXR, function to assist the activated nuclear receptor exert its activity as a transcription factor. Characterized co-activators include CBP, p300, RIP140, SRC-1, ACTR, TIF2 (also called GRIP 1) and TIFI. In most cases coactivator will not bind the receptor in the absence of an agonist, moreover, receptor antagonists will often block coactivator binding, either directly or through the recruitment of a corepressor. Coactivator recruitment assays are therefore a valuable method for directly visualizing associative changes to a receptor caused by the addition of a prospective ligand.
GRIP 1 was expressed as a fusion protein with glutathione-S-transferase, an enzyme which selectively binds glutathione and can thus be used as an affinity reagent. See e.g., U.S. Pat. No. 5,654,176. The GST-GRIP1 fusion protein was expressed in E. coli and purified on glutathione-Sepharose columns. In vitro translated BAR/FXR\RXR (0.6-1.2 μl each) and GST-GRIP 1 (5 μg) were incubated for 30 min at room temperature with 100,000 cpm of the E. coli DNA polymerase Klenow fragment-labeled probes in 10 mM Tris (pH 8.0), 50 mM KCl, 6% glycerol, 0.05% NP-40, 1 mM DTT, 12.5 ng/μl poly dI-dC, and the indicated ligands. Complexes were electrophoresed through 5% polyacrylamide gel in […] (45 mM Tris-base, 45 mM boric acid, 1 mM EDTA) at room temperature. Oligonucleotide probes were made to identify specific receptor dimers; an optimized DR-1 (direct repeat 1; a nucleotide sequence motif to which RXR will bind) probe (5′-[…]) (SEQ ID NO: 12) was used for RXR homodimers and the IR-1 sequence of the IBABP promoter, to which the BAR/RXR heterodimer binds, was used for BAR/RXR heterodimers.
We next tested the ability of AGN34 to displace the GRIP-1 co-activator from BAR. […] Competition experiments using the BAR/RXRm heterodimer binds yielded the same results as obtained using the BAR/RXR heterodimer. (FIG. 4D).

Cc1cc2c(cc1/C(=C/c1ccc(C(=O)O)cc1)[Si](C)(C)C)C(C)(C)CCC2(C)C [AGN 29, (Z)-4-[2-(3,5,5,8,8-Pentamethy1-5,6,7,8-tetrahydronaphthalen-2-yl)-2-(trimethylsilyl)vinyl]benzoic Acid]
BAR/FXR expression ([1]; 10 μM): no effect | CYP7A expression ([1]; 10 μM): repress | GAPDH expression ([1]; 10 μM): no effect | transcription of SHP ([1]; 10 μM): induce | EC50 [2]: ~2000 nM | activation of BAR/FXR (luciferase expression) [2]: 91 fold | activation of RAR [3]: loss of specificity for RAR | formation of BAR:RXR:GRIP1 complex ([4]; 0.75 μM): form a complex

CCCC/C(=C\c1ccc(C(=O)O)cc1)c1ccc2c(c1)C(C)(C)CCC2(C)C [AGN 31, 4-[2-(5,5,8,8-Tetramethyl-5,6,7,8-tetrahydronaphthalen-2-yl)hex-1-enyl]benzoic Acid]
BAR/FXR expression ([1]; 10 μM): no effect | CYP7A expression ([1]; 10 μM): repress | GAPDH expression ([1]; 10 μM): no effect | transcription of SHP ([1]; 10 μM): induce | EC50 [2]: ~2000 nM | activation of BAR/FXR (luciferase expression) [2]: 85 fold | activation of RAR [3]: loss of specificity for RAR

CCCCCCOc1c(\C(C)=C/C=C/C(C)=C/C(=O)O)cc(C(C)C)cc1C(C)C [AGN 34, (2E, 4E, 6Z)-7-(2-Hexyloxy-3,5-diisopropylphenyl)-3-methylocta-2,4,6-trienoic Acid]
basal SHP levels ([1]; 1 μM AGN 34, 24 hours): did not affect | CYP7A expression ([1]; AGN 34 alone): repressed | CYP7A expression ([1]; combination of AGN 34 and CDCA): repressed even further | repression of the BAR/RXR heterodimer [2]: ~10 fold | repression of CDCA-activated transcription ([2]; 0.03 μM AGN 34, constant concentration of CDCA): approximately 85% | repression of CDCA-activated BAR-mediated transcription ([2]; 50 μM CDCA + 1 μM AGN 34): ~10 fold | basal activity of luciferase gene expression ([2]; AGN 34 (1 μM) without CDCA): did not affect | concentration showing maximal activity (repression) ([2]; constant concentration of CDCA): 1 µM | doses for full displacement of co-activator, LG 268 versus RXR:BAR-CDCA complexes [4]: Much lower doses | dissociation of BAR:RXR:GRIP1 complex ([4]; 0.75 μM AGN 29 as agonist, increasing concentrations of AGN 34): progressive dissociation of that complex | displacement of co-activator (GRIP1) ([4]; heterodimers in which LG 268 was added): fully displaces
